Test results as given in PMC3265452 (PLoS Neglected Tropical Diseases, 2012).
Counter-ions that a name gives are not always drawn. Like-named read-outs stand apart in the source and are kept apart here.

How the values were obtained:
AaDOP2 [1] = target: T1, AaDOP2 (Aedes aegypti, UniProt H6D5H2); conditions: for Relative fold selectivity for AaDOP2 vs. hD1: from IC50 values at AaDOP2 and hD1
AaDOP2 [2] = target: T1, AaDOP2; test: cell-based
[3] = target: T2, human D1 dopamine receptor (hD1) (Homo sapiens, UniProt P21728); test: cAMP accumulation secondary assay, hD1-expressing cells; assay type: cell-based
T2 construct: expressed in transfected cells

[4] = test system: Ae. aegypti L4-stage larvae (Liverpool strain); test: whole plant or invertebrate; assay type: in vivo, Aedes aegypti; conditions: for average mortality: single dose-point 400 µM, 24 hours post-treatment
Protocol: Single dose-point and dose response in vivo mosquito bioassays were used to assess the toxicity of selected AaDOP2 receptor antagonists identified in the chemical screen. Larvae of Ae. aegypti (Liverpool strain) were reared under standard laboratory conditions on a 12 hr day/night cycle at 75% RH and 28°C, and bioassays were conducted at room temperature (22–24°C). Larvae were transferred from standard rearing trays into six-well tissue culture plates (Corning, Inc. Corning, NY) using a small plastic pipette. Ten L4-stage larvae were included per well, each containing five ml of de-ionized water and the assigned drug concentration. Controls were conducted similarly but lacked a drug treatment. Bioassays employed a double-blind experimental design, and percent mortality was scored 24 hr following administration of drugs. Single dose-point assays were conducted using 400 µM drug and included three biological replicates each consisting of 50–100 larvae. Dose-response assays were conducted using five doses (400, 200, 100, 50, and 25 µM) of the compounds suspended in water, with water alone as a control. Five technical replicates, each including 10 larvae, were performed per dose, and the assay was repeated three times.

AaDOP2 [5] = target: T1, AaDOP2; test: AaDOP2 antagonist screen of the LOPAC1280 library (HEK-CRELuc-Aadop2 cells, luminescence); assay type: cell-based; conditions: for inhibition at 10 µM: read-out: % of the SCH23390 effect (percent inhibition of receptor response relative to the SCH23390 control)
AaDOP2 [6] = target: T1, AaDOP2
AaDOP1 [7] = target: T3, AaDOP1 (Aedes aegypti, UniProt H6D5H1); test: CRELuc reporter dose-response in HEK293 cells stably expressing AaDOP1; assay type: cell-based
AaDOP1 [8] = target: T3, AaDOP1; conditions: single dose of dopamine 10 µM, n = 3
AaDOP2 [9] = target: T1, AaDOP2; conditions: single dose of dopamine 10 µM, n = 3
[10] = 10 µM SCH23390 in the presence of 1 µM dopamine

T3 sequence (H6D5H1 entry or part of it): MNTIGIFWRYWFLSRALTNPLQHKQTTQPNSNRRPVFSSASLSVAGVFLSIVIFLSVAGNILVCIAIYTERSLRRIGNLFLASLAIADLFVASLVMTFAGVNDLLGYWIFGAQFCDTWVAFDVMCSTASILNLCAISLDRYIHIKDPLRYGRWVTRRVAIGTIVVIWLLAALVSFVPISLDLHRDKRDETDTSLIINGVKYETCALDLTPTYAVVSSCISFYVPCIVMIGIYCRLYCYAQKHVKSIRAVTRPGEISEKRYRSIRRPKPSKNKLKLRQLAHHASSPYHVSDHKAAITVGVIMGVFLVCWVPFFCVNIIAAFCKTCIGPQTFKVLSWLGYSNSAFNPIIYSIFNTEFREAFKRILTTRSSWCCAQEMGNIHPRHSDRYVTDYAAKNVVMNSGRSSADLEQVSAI
T1 sequence (H6D5H2 1-476): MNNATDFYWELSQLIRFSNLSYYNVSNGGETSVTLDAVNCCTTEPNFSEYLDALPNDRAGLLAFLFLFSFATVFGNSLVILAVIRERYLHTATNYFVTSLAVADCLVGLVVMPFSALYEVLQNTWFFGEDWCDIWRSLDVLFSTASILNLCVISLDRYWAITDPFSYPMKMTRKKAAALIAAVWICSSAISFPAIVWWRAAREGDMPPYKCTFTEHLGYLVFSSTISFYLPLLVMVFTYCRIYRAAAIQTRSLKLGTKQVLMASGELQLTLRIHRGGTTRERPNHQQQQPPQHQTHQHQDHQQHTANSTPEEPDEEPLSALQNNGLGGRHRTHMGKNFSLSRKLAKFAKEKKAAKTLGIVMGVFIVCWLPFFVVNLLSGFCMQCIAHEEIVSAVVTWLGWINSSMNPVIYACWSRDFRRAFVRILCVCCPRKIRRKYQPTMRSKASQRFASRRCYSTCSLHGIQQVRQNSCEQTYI
T2 sequence (P21728 whole entry): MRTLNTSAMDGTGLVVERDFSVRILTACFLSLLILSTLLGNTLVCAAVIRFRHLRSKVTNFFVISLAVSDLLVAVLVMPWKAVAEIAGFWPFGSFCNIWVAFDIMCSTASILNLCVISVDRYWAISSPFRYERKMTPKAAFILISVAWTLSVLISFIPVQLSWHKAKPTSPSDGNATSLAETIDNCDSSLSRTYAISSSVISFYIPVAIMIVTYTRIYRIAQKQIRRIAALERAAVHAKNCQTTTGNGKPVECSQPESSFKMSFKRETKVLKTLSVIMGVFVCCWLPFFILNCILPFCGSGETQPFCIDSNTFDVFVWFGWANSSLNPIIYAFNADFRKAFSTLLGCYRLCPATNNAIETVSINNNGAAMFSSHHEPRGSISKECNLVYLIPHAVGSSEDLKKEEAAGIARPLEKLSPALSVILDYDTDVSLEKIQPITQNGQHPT

**Q.** For `CN(C)CCC=C1c2ccccc2CCc2ccccc21` [Compound 92, Amitriptyline hydrochloride], which “Relative fold selectivity for AaDOP2 vs. hD1” value (AaDOP2 [1]; listed as Amitriptyline) is on record?
**A.** Its value is 36 fold.

**Q.** And the “Relative fold selectivity for AaDOP2 vs. hD1” value (AaDOP2 [1]; listed as amitriptyline)?
**A.** Its value is “more than 30 fold”.

**Q.** And the IC50 (AaDOP2 [2])?
**A.** The IC50 was 14 ± 3.4 nM.

**Q.** What about the IC50 [3] of the same compound?
**A.** Its IC50 is 470 ± 49 nM.

**Q.** What about the LC50 ([4]; Aedes aegypti, 24 h) of the same compound?
**A.** Its LC50 is 78000 nM.

**Q.** What about the LC90 ([4]; dose-response 25-400 µM, 24 hr) of the same compound?
**A.** The LC90 was 185000 nM.

**Q.** And the average mortality [4]?
**A.** Its average mortality is 93%.

**Q.** What about the “Compound effect (percent receptor signaling in presence of test compound, relative lux units relative to the SCH23390 control)” value (AaDOP2 [5]) of the same compound?
**A.** Its value is 10.

**Q.** What about the inhibition at 10 µM (AaDOP2 [5]) of the same compound?
**A.** Its inhibition at 10 µM is 90%.

**Q.** For `CN(C)CCC=C1c2ccccc2COc2ccccc21` [Compound 386, Doxepin hydrochloride], which average mortality [4] is on record?
**A.** The average mortality was 72%.

**Q.** `CN1CCc2cc(Cl)c(O)cc2[C@@H](c2ccccc2)C1` [Compound 446, R(+)-SCH-23390 hydrochloride] was tested. Which IC50 (AaDOP2 [2]) did it give?
**A.** Its IC50 is 1600 ± 73 nM.

**Q.** And the “inhibition of dopamine-mediated stimulation of AaDOP2” value (AaDOP2 [6]; [10])?
**A.** Its value is “robustly inhibited”.

**Q.** And the inhibition at 10 µM (AaDOP2 [5])?
**A.** Its inhibition at 10 µM is 83%.

**Q.** What about the “inhibition of dopamine-mediated stimulation of AaDOP1” value (AaDOP1 [7]; [10]) of the same compound?
**A.** The value was “robustly inhibited”.

**Q.** With `NCCc1ccc(O)c(O)c1` [Compound 603, Dopamine hydrochloride] as the compound, how does the “increase of intracellular cAMP” value (AaDOP1 [8]) read?
**A.** The value was 2.7±0.6 fold.

**Q.** And the “increase of intracellular cAMP” value (AaDOP2 [9])?
**A.** The value was 48±14 fold.

**Q.** What about the EC50 (AaDOP1 [7]) of the same compound?
**A.** Its EC50 is 3.1 ± 1.1 nM.

**Q.** What does the source list for `CSc1ccc2c(c1)C(N1CCN(C)CC1)Cc1ccccc1S2.O=C(O)/C=C\C(=O)O` (stereo not shown) [Methiothepin, methiothepin maleate]?
**A.** Relative fold selectivity for AaDOP2 vs. hD1 (AaDOP2 [1]): 5.7 fold; IC50 (AaDOP2 [1]; read-out: IC50 value (at 3 µM dopamine for AaDOP2), 3 µM dopamine, cAMP accumulation): 14 ± 5.1 nM; IC50 ([3]; read-out: IC50 value (at 100 nM dopamine for hD1), 100 nM dopamine, cAMP accumulation): 80 ± 11 nM

**Q.** For `Oc1cc2c(c(Cl)c1O)CCNCC2c1ccccc1` (stereo not shown) [SKF 81297], which EC50 (AaDOP2 [6]; read-out: EC50 values AaDOP2, HEK293 cells stably expressing CRELuc reporter and AaDOP2, ≥10 µM considered lacking intrinsic activity) is on record?
**A.** Its EC50 is at least 10000 nM.

**Q.** What about the EC50 (AaDOP1 [7]; HEK293 cells stably expressing CRELuc reporter and AaDOP1, read-out: EC50 values AaDOP1) of the same compound?
**A.** The EC50 was 24 ± 7 nM.
